Earlier results as cited in patent US7863316B2, “Extended release formulation of Levetiracetam” (UCB Pharma S.A., priority 2005, dated 2011).

Assays:
[1] = three different pH media, immediate release tablet
[2] = not given; remark: listed apart in the source

time to steady state kinetics (after multiple twice daily dosing): 2 days
bound to plasma proteins (in vivo): less than 10%
renal clearance (in vivo): 0.6 mL/min/kg
total body clearance (in vivo): 0.9 mL/min/kg
volume of distribution (in vivo): 0.6 L/kg
decrease of cmax by food (with food): 20%
delay of Tmax by food (with food): 1.5 h
tablet amount released in 15 minutes [1]: > 85%
solubility in acetonitrile ([2]; acetonitrile): 5.7 g/100 mL
solubility in chloroform ([2]; chloroform): 65.3 g/100 mL
solubility in ethanol ([2]; ethanol): 16.5 g/100 mL
solubility in methanol ([2]; methanol): 53.6 g/100 mL
solubility in n-hexane ([2]; n-hexane): practically insoluble
aqueous solubility ([2]; water): 104 g/100 mL
SMILES: CC[C@@H](C(N)=O)N1CCCC1=O [Levetiracetam, (−)-(S)-α-ethyl-2-oxo-1-pyrrolidine acetamide]
